Test results from ChEMBL document CHEMBL1137040, “Estrone formate: a novel type of irreversible inhibitor of human steroid sulfatase” (Bioorg Med Chem Lett, 2004).

Molecular target: T1, Steryl-sulfatase (Homo sapiens, UniProt P08842)
T1 sequence (P08842 whole entry): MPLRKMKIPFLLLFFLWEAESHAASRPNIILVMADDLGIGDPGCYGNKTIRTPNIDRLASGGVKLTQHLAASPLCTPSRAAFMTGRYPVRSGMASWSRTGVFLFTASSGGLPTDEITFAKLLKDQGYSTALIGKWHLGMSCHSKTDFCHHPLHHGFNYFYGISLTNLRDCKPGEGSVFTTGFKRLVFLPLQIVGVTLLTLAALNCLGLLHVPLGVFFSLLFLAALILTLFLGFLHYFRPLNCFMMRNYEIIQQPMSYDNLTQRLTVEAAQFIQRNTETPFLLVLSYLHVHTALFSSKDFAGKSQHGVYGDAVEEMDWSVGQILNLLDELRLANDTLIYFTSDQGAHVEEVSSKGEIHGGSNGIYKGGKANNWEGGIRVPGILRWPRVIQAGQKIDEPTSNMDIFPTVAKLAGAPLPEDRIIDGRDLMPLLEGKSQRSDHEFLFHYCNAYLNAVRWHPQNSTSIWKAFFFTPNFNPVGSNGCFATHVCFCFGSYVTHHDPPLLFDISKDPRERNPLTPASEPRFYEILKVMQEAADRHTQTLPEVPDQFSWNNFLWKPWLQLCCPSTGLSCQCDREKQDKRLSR
Experiment: Inhibition of purified human steroid sulfatase

Row | Structure (SMILES) | IC50 [µM]
1 | O=COc1ccc2nc(C=C3C4CC5CC(C4)CC3C5)oc2c1 | 1.5
2 | Oc1ccc2nc(C=C3C4CC5CC(C4)CC3C5)oc2c1 | 0.26
3 | C[C@]12CC[C@H](OC=O)C=C1CCC1C2CC[C@]2(C)C(=O)CCC12 (stereo partly drawn) | > 10
4 | C[C@]12CC[C@@H]3c4ccc(OC(=O)NCc5ccccc5)cc4CCC3[C@@H]1CCC2=O (single isomer, unassigned) | > 50
5 | CC(C)(C)OC(=O)NCC(=O)Oc1ccc2c(c1)CCC1[C@@H]2CC[C@]2(C)C(=O)CC[C@@H]12 (single isomer, unassigned) | > 50
6 | C[C@]12CC[C@@H]3c4ccc(OC=O)cc4CCC3[C@@H]1CCC2=O (single isomer, unassigned) | 0.42
7 | C[C@]12CC[C@@H]3c4ccc(OC(=O)CN)cc4CCC3[C@@H]1CCC2=O (single isomer, unassigned) | > 50
8 | C[C@]12CC[C@@H]3c4ccc(OC#N)cc4CCC3[C@@H]1CCC2=O (single isomer, unassigned) | > 50
9 | CC(=O)Oc1ccc2c(c1)CCC1[C@@H]2CC[C@]2(C)C(=O)CC[C@@H]12 (single isomer, unassigned) | > 50
10 | C[C@]12CC[C@@H]3c4ccc(OC(=N)S)cc4CCC3[C@@H]1CCC2=O (single isomer, unassigned) | > 50
11 | C[C@]12CC[C@@H]3c4ccc(OC(N)=O)cc4CCC3[C@@H]1CCC2=O (single isomer, unassigned) | > 50
12 | C[C@]12CC[C@@H]3c4ccc(OS(N)(=O)=O)cc4CCC3[C@@H]1CCC2=O (single isomer, unassigned) [EMATE] | 0.05
13 | O=COc1ccccc1 [FORMIC ACID PHENYL ESTER] | > 30
